Source: patent publication US11382907B2, “Methods and compositions for treating aging-associated impairments using CCR3-inhibitors” (Alkahest, Inc., priority 2017, dated 2022)
Entries after “also recorded” stand apart in the source; their conditions may differ.

Legend:
[1] = Tissue distribution of [14C]-radiolabeled Compound 1 (LSC, whole body autoradiography); type: in vivo, C57BL/6JOlaHsd mice; conditions: 10 mg/kg oral, [14C]-label; 1, 24, 168 hours
Protocol: The distribution of Compound 1 in mouse tissues was determined after oral administration of which was [^14C]-radiolabeled (“Labeled Compound”) to male pigmented C57BL/6JOlaHsd mice (Harlan Labs, BV). The Labeled Compound was administered at 10 mg/kg of body weight, corresponding to 17 μmol/kg. One animal was sacrificed after 1, 24, and 168 hours post-administration. Blood, plasma, and eye radioactivity concentrations were measured using liquid scintillation counting (LSC). Tissue and organ concentrations were determined by whole body autoradiography technique (QWBA). […]
The following sections were taken at different levels through the embedded animal, and whole body sections selected at 5-7 levels in order to allow for quantitative evaluation of radioactivity: adrenal glands; blood; bone marrow; brain; eye (lens); epididymis; fat (white and brown); Harderian gland; heart; kidneys; liver; lung; muscle; pituitary; pancreas; prostate, spinal cord; spleen salivary gland; skin; testis; thyroid; thymus; uveal tract. […]
FIG. 7 depicts a chart of values reporting the area under the curve (AUC) for all three time points, and quantifies each tissue's exposure to the Labeled POI after administration of the compound.

[2] = system: BrdU-positive cells in the hippocampus; test: Histology: BrdU positive cells in hippocampus of aged mice; type: in vivo, C57Bl/6 mice
Protocol: For fluorescent microscopy, the following antibodies were used in the given concentrations: GFAP, 1:500, DAKO; Iba1, 1:1000, Wako; and BrdU, 1:500, AbCam. Antigen retrieval protocol was required for BrdU (2N HCl, 37 C, 30 min) prior to blocking. The appropriate fluorescent secondary antibodies were applied the next day at a concentration of 1:300 for one hour at room temperature. Prolong Gold Mounting Media was used to coverslip the slides. Images were acquired on a light microscope at 5× magnification.
Two-month-old or 18-month-old C57Bl/6 mice were dosed with either IgG antibody control by IP injection or Compound 1 subcutaneously by Alzet osmotic pump for either 2 or 4 weeks. During the last week of treatment, mice were subjected to behavior testing prior to perfusion on the last day of treatment. All mice received 5 consecutive days of BrdU injection at 150 mg/kg IP immediately prior to treatment start. […]

blood eosinophils = test: Oxazolone-induced model of eosinophilia in hairless mice (CBC); type: in vivo; conditions: 3-month-old hairless mice, oxazolone every other day, 30 mg/kg PO BID 2 weeks
Protocol: 3-month-old hairless mice were treated with oxazolone (Ox) every other day and treated with control saline or 30 mg/kg Compound 1 for 2 weeks BID, PO.
Treatment Groups: • Treatment Group 1, Vehicle treatment: 3-month-old Hairless mice (n=3) received twice daily (BID) oral gavage (PO) treatment of vehicle solution for 2 weeks. • Treatment Group 2, Vehicle treatment and Oxazolone treatment: 3-month-old Hairless mice (n=6) received twice daily (BID) oral gavage (PO) treatment of vehicle solution for 2 weeks. • Treatment Group 3, Compound 1 treatment and Oxazolone treatment: 3-month-old Hairless mice (n=6) received twice daily (BID) oral gavage (PO) treatment of Compound 1, 30 mg/kg, for 2 weeks.

[3] = system: twenty-four-month-old C57 mice; test: Overnight fecal output, water and food intake in aged mice; type: in vivo; conditions: 4 weeks continuous infusion by osmotic pump
Protocol: Twenty-four-month-old C57 mice were treated for 4 weeks with continuous infusion of Compound 1 or vehicle by Alzet osmotic pump, which were implanted to continuously deliver the two treatments.
Treatment Groups: • Treatment Group 1, Old Controls: Aged C57BL/6 mice (n=15), aged 23 months, received infusion of vehicle by Alzet mini-pump, model 2002 (0.5 uL/hr), for four weeks with one replacement. • Treatment Group 2, Compound 1 (dose 2) in Old: Aged C57BL/6 mice (n=15), aged 23 months, received infusion of ˜50 mg/ml Compound 1 by Alzet mini-pump, model 2002 (0.5 uL/hr), for four weeks with one replacement.
Fecal output was measured by weighing the dry weight of fecal pellets overnight (FIG. 22). […] is a well-known symptom of Parkinson's disease. Water and food intake were measured over the same time period.

Cc1cc(C(=O)N(C)C)cc(NC(=O)[C@H]2CCC(=O)N2C2CCN(Cc3ccc(Cl)c(C)c3)CC2)n1 [Compound 1]
crossing of the blood-brain barrier (tissue AUC of radioactivity) [1]: does not cross the blood-brain barrier (BBB) at significant levels | BrdU-positive cells in the hippocampus ([2]; 16.5-month-old mice, four-week dosing by pump): significantly increased the number of BrdU-positive cells | BrdU-positive cells in the hippocampus ([2]; 18-month-old mice, higher dosing for 2 weeks by pump): trend in increased BrdU-positive cells | blood eosinophils (percentage of WBC count) (blood eosinophils): decreased the oxazolone-induced increase in blood eosinophils; also recorded: decreased an oxazolone-induced increase in blood eosinophils | fecal output overnight [3]: significantly lower fecal output | food intake overnight [3]: no differences in total food intake | water intake overnight [3]: significantly higher water intake; also recorded: drank significantly more water
